Columns and labels:
HER4 = test system: HER4; set-up: method as in Drewry et al., 2017; conditions: PKIS2, KinomeScan, ref Drewry et al., 2017; cited from earlier work
HER2 = test system: HER2; set-up: method as in Drewry et al., 2017; conditions: PKIS2, KinomeScan, ref Drewry et al., 2017; cited from earlier work
EGFR = test system: EGFR; set-up: method as in Drewry et al., 2017; conditions: PKIS2, KinomeScan, ref Drewry et al., 2017; cited from earlier work
planktonic MRSA cultures = assay: Bacterial growth assay in cell-free planktonic MRSA cultures (OD600); type: cell-based, Staphylococcus aureus; conditions: up to 100 µM concentration, Supplementary Figure S5
Method: […] The absorbance was measured using an EnVision plate reader (PerkinElmer). The plates were incubated at 37°C overnight and the absorbance was measured again the next day. Real-time measurement of bioluminescence by the MRSA-lux strain was performed in a white flat-bottom 96-wells plate using a SpectraMax i3x plate reader and an integration time set at 9000 ms.

[1] = test system: intracellular MRSA in HeLa cells; assay: Gentamicin protection assay with CFU count in MRSA-infected HeLa cells; type: cell-based, Staphylococcus aureus; conditions: HeLa cells
Method: The cells were resuspended in cell culture medium without antibiotics, seeded with 10,000 cells/well into Costar flat-bottom 96-well plates (Corning, Amsterdam, the Netherlands), and were incubated overnight at 37°C/5% CO2. The next day, the bacteria were centrifuged at ≥1800 g for 15 min and resuspended in cold PBS + 5 mM ethylenediaminetetraacetic acid (EDTA). The number of CFUs present in the bacterial suspension was estimated from the optical density at 600 nm (OD600) by assuming 8x10^8 CFUs to be present in a bacterial suspension with OD600 = 1, based on prior titrations. The bacterial suspension was diluted in cell culture medium without antibiotics and added to the cells. Accuracy of the multiplicity of infection (MOI) was validated by plating serial dilutions of the MRSA inoculums on Difco TS agar plates (BD Biosciences). The calculated mean MOI throughout all experiments was 6.8 ± 4.6 (mean ± SD). Infected cells were centrifuged for 3 min at 150 g and incubated for 1 hour at 37°C/5% CO2. Next, the cells were incubated with fresh cell culture medium supplemented with 30 µg/ml gentamicin sulphate (Lonza BioWhittaker, Basel, Switzerland) for 15 min at 37°C/5% CO2 to kill residual extracellular bacteria. Infected cells were incubated overnight at 37°C/5% CO2 in cell culture medium in the presence of kinase inhibitors and 5 µg/ml gentamicin sulphate-containing medium to prevent the growth of extracellular bacteria. The solvent of the compounds, DMSO, was used at equal % v/v as a negative control. For the screen, each compound was tested in triplicate, on separate cell culture plates, resulting in triplicate values for each kinase inhibitor.
Infected cells were lysed in sterile water + 0.05% UltraPure SDS solution (Invitrogen, ThermoFisher Scientific) to release intracellular bacteria. Bacterial suspensions and lysates of cells infected with MRSA were 5-fold serially diluted and 10-μl drops were plated on square TS agar plates. The plates were left to dry and incubated overnight at 37°C/5% CO2.

MRSA = conditions: especially against MRSA biofilm formation; ref Liu et al., 2022; cited from earlier work

| SMILES | % inhibition at 1 µM HER4 (HER4) [%] | % inhibition at 1 µM HER2 (HER2) [%] | % inhibition at 1 µM EGFR (EGFR) [%] | effect on planktonic MRSA growth (direct antibiotic effect) (planktonic MRSA cultures) | increase in the intracellular bacterial burden ([1]; 3 µM) [%] | activity against intracellular MRSA ([1]; 10 and 30 µM) | concentrations resulting in direct antimicrobial effects (MRSA) |
| --- | --- | --- | --- | --- | --- | --- | --- |
| CS(=O)(=O)CCNCc1nc(-c2ccc3ncnc(Nc4ccc(OCc5cccc(F)c5)c(Cl)c4)c3c2)cs1 [GW583340] | 99.1 | 99.7 | 99.9 |  |  |  |  |
| CS(=O)(=O)CCNCc1ccc(-c2ccc3ncnc(Nc4ccc(OCc5cccc(F)c5)c(Cl)c4)c3c2)o1 [lapatinib, reference compound] |  |  |  | did not observe this direct effect | 80 | only modestly active | above 10 µM |
